From patent US11401264B2, “Heterocyclic compound” (Orizuru Therapeutics, Inc., priority 2018, dated 2022)

Assays:
[1] = test system: cardiomyocytes (embryoid bodies) from double knock-in human iPS cell lines (mCherry at TNNI3 locus); test: Experimental Example 2: mCherry expression in TNNI1+ cells by flow cytometry; format: cell-based; settings: 3 μM, 8th-16th day, DMSO control 7.8
Method: (§1) For detection of cardiomyocyte maturation, double knock-in human iPS cell lines, in which reporter protein sequences, EmGFP (Sequence Number 1) and mCherry (Sequence Number 2) were inserted into gene loci for TNNI1 and TNNI3, respectively, were prepared (the human iPS cells were prepared from episomal vector (loaded gene; OCT3/4, KLF4, SOX2, L-MYC, LIN28, mouse p53DD) using PBMC (LP_167, Sample ID: 20130318) purchased from CTL (reference literature; Okita K, et al. Stem Cells. 2012 Nov. 29. doi: 10.1002/stem.1293)).
(§2) The maintenance culture of the above-mentioned reporter iPS cell lines was carried out by a conventional method (Okita K, et al. Stem Cells. 2012 Nov. 29. doi: 10.1002/stem.1293).
For differentiation induction into cardiomyocytes, the reporter iPS cell lines were treated with 0.5×TrypLE select (Life Technologies, diluted in 1/2 with 0.5 mM EDTA/PBS) for 4 to 5 minutes, and the cells were exfoliated using a cell scraper (IWAKI), and then dissociated into the single cell by pipetting. The medium was removed by centrifugation (1,000 rpm, 5 min), and the obtained cells were suspended in a medium prepared by adding 1% L-glutamine, transferrin 150 μg/mL, ascorbic acid 50 μg/mL (Sigma), monothioglycerol […], 10 μM Rock inhibitor (Y-27632), 2 ng/mL BMP4 (R&D) and 0.5% Matrigel (Growth Factor Reduced) to StemPro-34 SFM (ThermoFisher) in a 6 well-plate by 2×10^6 cells/1.5 mL/well, and then subjected to static culture at 37° C., under 5% oxygen condition to form embryoid bodies (0 day).
Next day (1st day), a medium prepared by adding 1% L-glutamine, transferrin 150 μg/mL, ascorbic acid 50 μg/mL (Sigma), monothioglycerol 4><10^−4 M, 1.8 μL (concentration 12 ng/mL) of 10 μg/mL activin A, […] (concentration 10 ng/mL) of 10 μg/mL bFGF and 2.7 μL (concentration 18 ng/mL) of 10 μg/mL BMP4 to 1.5 mL of StemPro-34 SFM (ThermoFisher) was added to each well of the 6 well plate containing the embryoid bodies to adjust the volume combined with the 0 day's medium to final 3 mL (activin A: 6 ng/ml, bFGF: 5 ng/ml, BMP4: 10 ng/ml), and the embryoid bodies were cultured at 37° C. for additional 2 days, under 5% oxygen condition.
Then (3rd day), the 6 well plate containing the embryoid bodies was inclined, and then left to stand for 1 to 2 minutes until the embryoid bodies were precipitated at the edges of the wells, and the supernatant was aspirated so as not to suck the embryoid bodies. Then, IMDM (ThermoFisher) medium was added to each well, and, as above, the plate was inclined, and then left to stand for 1 to 2 minutes, and the supernatant was aspirated so as not to suck the embryoid bodies. A medium prepared by adding 1% L-glutamine, transferrin 150 μg/mL, ascorbic acid 50 μg/mL (Sigma), monothioglycerol 4×10^−4 M, 10 ng/mL VEGF, 1 μM IWP-3, 0.6 μM dorsomorphin and 5.4 μM SB431542 to 3 mL of StemPro-34 SFM (ThermoFisher) was added to each well of the 6 well plate, and then the embryoid bodies were cultured at 37° C. for 3 days, under 5% oxygen condition.
Then (6th day), the 6 well plate containing the embryoid bodies was inclined, and then left to stand for 1 to 2 minutes until the embryoid bodies were precipitated at the edges of the wells, and the supernatant was aspirated so as not to suck the embryoid bodies. […]

[2] = test system: cardiomyocytes (embryoid bodies) from double knock-in human iPS cell lines (mCherry at TNNI3 locus); test: Experimental Example 3: mCherry expression in TNNI1+ cells by flow cytometry, Example 8 with Compound A; format: cell-based; settings: DMSO control 10.2
Method: as §1, §2
For differentiation induction into cardiomyocytes, the reporter iPS cell lines were treated with 0.5×TrypLE select (Life Technologies, diluted in 1/2 with 0.5 mM EDTA/PBS) for 4 to 5 minutes, and the cells were exfoliated using a cell scraper (IWAKI), and then dissociated into the single cell by pipetting. […]

Compound: O=C1c2ccc(N3CCOCC3)cc2CN1c1ccc2[nH]c(-c3ccc(Br)cc3)nc2c1 [Example 8, 2-(2-(4-bromophenyl)-1H-benzimidazol-5-yl)-5-(morpholin-4-yl)isoindolin-1-one]
- mCherry+ (%) [1]: 61.0%
- mCherry+ (%) ([2]; Example 8 3 μM 8-9th days, then compound A 40 nM 10-15th days): 64.3%
- mCherry+ (%) ([2]; Example 8 3 μM 8-9 days, then Example 8 3 μM + Compound A 40 nM 10-15th days): 85.1%
